Tests used:
A549 = experiment: In vitro antitumor activity against A549 human NSCLC lung carcinoma cells; type: functional, cell-based
HT-29 = experiment: In vitro antitumor activity against HT-29 human colon adenocarcinoma cells; type: functional, cell-based
L1210 = experiment: In vitro antitumor activity against L1210 murine lymphocytic leukemia cells; type: functional, cell-based; conditions: Mus musculus
MCF7 = experiment: In vitro antitumor activity against MCF-7 human breast adenocarcinoma cells; type: functional, cell-based
PSN1 = experiment: In vitro antitumor activity against PSN-1 human pancreatic carcinoma cells; type: functional, cell-based
CCRF-CEM [1] = experiment: Cytotoxic activity against HIV infected T4 lymphocytes (CEM cell line); type: functional, cell-based; conditions: Homo sapiens
CCRF-CEM [2] = experiment: Antitumor activity against HIV infected T4 lymphocytes (CEM cell line) at 0.4 uM concentration; type: functional, Homo sapiens
CCRF-CEM [3] = experiment: Cytotoxic activity against HIV uninfected T4 lymphocytes (CEM cell line); type: functional, cell-based; conditions: Homo sapiens

IC50 (A549) [µM] | IC50 (HT-29) [µM] | IC50 (L1210) [µM] | IC50 (MCF7) [µM] | IC50 (PSN1) [µM] | SMILES | IC50 (CCRF-CEM [1]) [µM] | Protection (CCRF-CEM [2]) [%] | IC50 (CCRF-CEM [3]) [µM]
> 100 | > 100 | > 100 | > 100 | > 100 | C/C(=C\Cn1cnc2c(O)ncnc21)CCC(=O)O | – | – | –
> 100 | > 100 | > 100 | > 100 | > 100 | C/C(=C\Cn1cnc(C(N)=O)n1)CCC(=O)O | – | – | –
> 100 | > 100 | > 100 | > 100 | > 100 | C/C(=C\Cc1nc(C(N)=O)cs1)CCC(=O)O | – | – | –
> 100 | > 100 | > 100 | > 100 | > 100 | C/C(=C\Cc1cccc(C(N)=O)n1)CCC(=O)O | – | – | –
> 100 | > 100 | > 100 | > 100 | > 100 | C/C(=C\Cc1ccc(C(N)=O)[nH]1)CCC(=O)O | 730 | – | –
0.4 | 0.9 | < 0.2 | 0.5 | 0.7 | COc1c(C)c2c(c(O)c1C/C=C(\C)CCC(=O)O)C(=O)OC2 [MYCOPHENOLIC ACID] | – | 20 | 0.9
> 100 | > 100 | > 100 | > 100 | > 100 | COC(=O)c1ccc(C/C=C(\C)CCC(=O)O)[nH]1 | 360 | – | –
> 100 | > 100 | > 100 | > 100 | > 100 | C/C(=C\Cn1cnc2c(Cl)ncnc21)CCC(=O)O | – | – | –
> 100 | > 100 | > 100 | > 100 | > 100 | C/C(=C\Cn1cnc(C(=O)O)n1)CCC(=O)O | – | – | –

Reference: ChEMBL document CHEMBL1128880, “Design and synthesis of heterocyclic analogues of mycophenolic acid as potential chemotherapeutic agents” (Bioorg Med Chem Lett, 1995)
